pEC50: −log10 of the molar value. In brackets after ≈: the same amount, converted by molar mass.

The subject of data set [1] is Rattus norvegicus. As to the kind of experiment: Cardiotoxicity in Sprague-Dawley rat assessed as increase in mean blood pressure at 3 mg/kg, iv after 30 mins (reference value: 1 +/- 0.5%). The format is toxicity, organism-based. The note with it: in vivo, 0.5 h.
For data set [2], the target named is T1, Alpha-1D adrenergic receptor (Homo sapiens, UniProt P25100).
T1 sequence (P25100 whole entry): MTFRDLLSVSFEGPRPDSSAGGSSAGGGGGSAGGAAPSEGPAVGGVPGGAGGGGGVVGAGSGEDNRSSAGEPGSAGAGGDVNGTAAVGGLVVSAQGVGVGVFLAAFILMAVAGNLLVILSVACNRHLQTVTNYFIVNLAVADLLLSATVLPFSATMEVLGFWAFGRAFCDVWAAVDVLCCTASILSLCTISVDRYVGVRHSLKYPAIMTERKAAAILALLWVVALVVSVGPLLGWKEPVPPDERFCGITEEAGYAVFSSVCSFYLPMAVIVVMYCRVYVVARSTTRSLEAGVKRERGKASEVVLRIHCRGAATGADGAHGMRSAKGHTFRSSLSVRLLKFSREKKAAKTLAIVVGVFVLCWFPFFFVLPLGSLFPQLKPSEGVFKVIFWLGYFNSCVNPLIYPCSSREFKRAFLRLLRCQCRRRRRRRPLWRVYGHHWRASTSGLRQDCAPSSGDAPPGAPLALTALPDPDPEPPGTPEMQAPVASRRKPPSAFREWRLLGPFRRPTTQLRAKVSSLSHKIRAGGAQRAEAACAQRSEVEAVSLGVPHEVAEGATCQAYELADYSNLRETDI
Put plainly: Agonist activity at recombinant human alpha1D adrenergic receptor expressed in HEK293 cells after 6 hrs by NFAT-luciferase reporter gene assay. Format: cell-based. A general note: A reporter such as luciferase makes a cellular process visible.

A further data set has as its target CYP3A4 (Homo sapiens, UniProt P08684). Put plainly: Inhibition of CYP3A4 (unknown origin) at 10 uM relative to control. Format: ADME.
A further data set deals with CYP2C9 (Homo sapiens, UniProt P11712). As to the kind of experiment: Inhibition of CYP2C9 (unknown origin) at 10 uM relative to control. Format: ADME.
Chain of CYP2C9 (P11712 whole entry): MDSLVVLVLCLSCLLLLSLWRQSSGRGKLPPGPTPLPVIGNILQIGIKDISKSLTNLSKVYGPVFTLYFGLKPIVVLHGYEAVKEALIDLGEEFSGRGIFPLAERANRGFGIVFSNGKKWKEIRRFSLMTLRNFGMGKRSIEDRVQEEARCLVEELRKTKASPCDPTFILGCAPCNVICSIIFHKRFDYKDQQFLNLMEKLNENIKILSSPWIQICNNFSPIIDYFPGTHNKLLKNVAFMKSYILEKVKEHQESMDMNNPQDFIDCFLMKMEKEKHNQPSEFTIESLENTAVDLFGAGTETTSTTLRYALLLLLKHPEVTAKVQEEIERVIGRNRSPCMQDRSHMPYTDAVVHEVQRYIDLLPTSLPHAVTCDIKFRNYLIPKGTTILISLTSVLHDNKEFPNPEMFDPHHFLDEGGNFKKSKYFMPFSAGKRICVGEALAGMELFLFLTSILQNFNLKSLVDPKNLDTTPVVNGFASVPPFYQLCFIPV
Data set [3] addresses T2, Beta-1 adrenergic receptor (Homo sapiens, UniProt P08588). Put plainly: Intrinsic activity at recombinant human beta1 adrenergic receptor assessed as accumulation of cyclic AMP after 30 mins relative to isoproterenol. The note with it: 0.5 h.
The target in a further data set is CYP2C19 (Homo sapiens, UniProt P33261). As to the kind of experiment: Inhibition of CYP2C19 (unknown origin) at 10 uM relative to control. The format is ADME.
Chain of CYP2C19 (P33261 whole entry): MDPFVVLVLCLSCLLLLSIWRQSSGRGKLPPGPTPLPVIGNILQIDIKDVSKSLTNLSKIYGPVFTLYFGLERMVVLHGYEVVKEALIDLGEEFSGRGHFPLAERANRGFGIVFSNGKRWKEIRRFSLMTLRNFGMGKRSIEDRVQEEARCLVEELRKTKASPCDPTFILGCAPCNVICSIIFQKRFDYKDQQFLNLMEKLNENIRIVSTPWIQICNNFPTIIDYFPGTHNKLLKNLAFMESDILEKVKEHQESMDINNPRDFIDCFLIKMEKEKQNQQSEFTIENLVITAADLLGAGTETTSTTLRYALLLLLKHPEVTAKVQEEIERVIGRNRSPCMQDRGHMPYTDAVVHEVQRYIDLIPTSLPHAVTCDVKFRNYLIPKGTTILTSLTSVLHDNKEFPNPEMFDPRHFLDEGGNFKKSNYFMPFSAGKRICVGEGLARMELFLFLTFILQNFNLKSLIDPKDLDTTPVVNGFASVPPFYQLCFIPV
Data set [4] has as its target T3, Alpha-1A adrenergic receptor (Homo sapiens, UniProt P35348).
T3 sequence (P35348 whole entry): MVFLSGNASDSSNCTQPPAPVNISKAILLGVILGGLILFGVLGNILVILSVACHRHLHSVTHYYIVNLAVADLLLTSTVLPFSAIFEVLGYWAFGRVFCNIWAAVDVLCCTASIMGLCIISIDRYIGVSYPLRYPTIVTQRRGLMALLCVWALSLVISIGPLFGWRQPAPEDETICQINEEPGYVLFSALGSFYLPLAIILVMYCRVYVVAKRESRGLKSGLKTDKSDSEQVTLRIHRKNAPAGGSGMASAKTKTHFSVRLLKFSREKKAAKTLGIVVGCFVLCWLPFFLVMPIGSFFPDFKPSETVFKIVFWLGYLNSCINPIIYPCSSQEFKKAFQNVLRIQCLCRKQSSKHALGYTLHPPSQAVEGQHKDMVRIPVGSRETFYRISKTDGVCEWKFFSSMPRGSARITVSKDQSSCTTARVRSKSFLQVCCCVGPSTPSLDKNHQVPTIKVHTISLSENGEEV
As to the kind of experiment: Intrinsic activity at recombinant human alpha1A adrenergic receptor expressed in HEK293 cells assessed as intercellular Ca mobilization by Fura-2AM dye-based fluorescence assay relative to norepinephrine. Format: cell-based. The note with it: read-out: Intrinsic activity.

For data set [5], the target named is Beta-2 adrenergic receptor (Homo sapiens, UniProt P07550). Put plainly: Agonist activity at recombinant human beta2 adrenergic receptor expressed in CHO cells assessed as accumulation of cyclic AMP after 30 mins. Format: cell-based.
Chain of Beta-2 adrenergic receptor (P07550 whole entry): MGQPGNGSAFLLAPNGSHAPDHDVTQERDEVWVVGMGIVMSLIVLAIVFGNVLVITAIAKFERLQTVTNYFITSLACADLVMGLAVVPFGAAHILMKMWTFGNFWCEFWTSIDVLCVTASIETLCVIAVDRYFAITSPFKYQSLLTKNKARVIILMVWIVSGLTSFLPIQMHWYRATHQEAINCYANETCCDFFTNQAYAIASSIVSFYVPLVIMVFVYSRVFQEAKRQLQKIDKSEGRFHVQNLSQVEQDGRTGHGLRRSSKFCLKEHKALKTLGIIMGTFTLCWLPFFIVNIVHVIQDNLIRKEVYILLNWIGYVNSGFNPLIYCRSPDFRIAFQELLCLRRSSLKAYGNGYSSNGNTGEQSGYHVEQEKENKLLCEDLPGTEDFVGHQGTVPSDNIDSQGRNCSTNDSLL
Data set [6] addresses Adrenoceptor beta 3 (Callithrix jacchus) (UniProt F6XZF4). Put plainly: Agonist activity at beta3 adrenergic receptor in marmoset urinary bladder smooth muscle strips assessed as induction of KCl-precontracted muscle relaxation treated every 20 mins.
In the next data set the target is T4, CYP2C8 (Homo sapiens, UniProt P10632).
T4 sequence (P10632 whole entry): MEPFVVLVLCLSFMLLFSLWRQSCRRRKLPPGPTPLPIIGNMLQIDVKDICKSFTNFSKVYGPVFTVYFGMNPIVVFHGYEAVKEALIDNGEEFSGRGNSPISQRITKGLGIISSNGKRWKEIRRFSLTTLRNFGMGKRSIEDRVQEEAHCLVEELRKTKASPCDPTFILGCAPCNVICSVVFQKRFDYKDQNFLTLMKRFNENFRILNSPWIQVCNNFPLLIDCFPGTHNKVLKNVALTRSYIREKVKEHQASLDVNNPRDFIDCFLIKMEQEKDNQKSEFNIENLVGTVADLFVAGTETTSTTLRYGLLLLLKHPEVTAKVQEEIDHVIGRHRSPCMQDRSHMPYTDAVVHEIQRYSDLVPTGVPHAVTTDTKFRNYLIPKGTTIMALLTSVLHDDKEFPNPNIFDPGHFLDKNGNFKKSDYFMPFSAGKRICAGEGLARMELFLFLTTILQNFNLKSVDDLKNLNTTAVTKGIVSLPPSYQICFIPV
As to the kind of experiment: Inhibition of CYP2C8 (unknown origin) at 10 uM relative to control. The format is ADME.

Data set [7] concerns the target T3, Alpha-1A adrenergic receptor. As to the kind of experiment: Agonist activity at recombinant human alpha1A adrenergic receptor expressed in HEK293 cells assessed as intercellular Ca mobilization by Fura-2AM dye-based fluorescence assay. Format: cell-based.
For data set [8], the system named is Rattus norvegicus. As to the kind of experiment: Cardiotoxicity in Sprague-Dawley rat assessed as decrease in mean blood pressure at 3 mg/kg, iv after 30 mins (reference value: 5.4 +/- 1.9%). The format is toxicity, organism-based. Set-up: scale not given: the % may be the effect or the level left. Particulars: in vivo, 0.5 h.
Data set [9] addresses T2, Beta-1 adrenergic receptor. As to the kind of experiment: Agonist activity at recombinant human beta1 adrenergic receptor expressed in CHO cells assessed as accumulation of cyclic AMP after 30 mins. Format: cell-based.
Data set [10] can be described thus: Solubility of the compound at pH 1.2 buffer solution after 18 hrs by HPLC analysis. The format is physicochemical.
For another data set, the target named is CYP2D6 (Homo sapiens, UniProt P10635). As to the kind of experiment: Inhibition of CYP2D6 (unknown origin) at 10 uM relative to control. Format: ADME.
Chain of CYP2D6 (P10635 whole entry): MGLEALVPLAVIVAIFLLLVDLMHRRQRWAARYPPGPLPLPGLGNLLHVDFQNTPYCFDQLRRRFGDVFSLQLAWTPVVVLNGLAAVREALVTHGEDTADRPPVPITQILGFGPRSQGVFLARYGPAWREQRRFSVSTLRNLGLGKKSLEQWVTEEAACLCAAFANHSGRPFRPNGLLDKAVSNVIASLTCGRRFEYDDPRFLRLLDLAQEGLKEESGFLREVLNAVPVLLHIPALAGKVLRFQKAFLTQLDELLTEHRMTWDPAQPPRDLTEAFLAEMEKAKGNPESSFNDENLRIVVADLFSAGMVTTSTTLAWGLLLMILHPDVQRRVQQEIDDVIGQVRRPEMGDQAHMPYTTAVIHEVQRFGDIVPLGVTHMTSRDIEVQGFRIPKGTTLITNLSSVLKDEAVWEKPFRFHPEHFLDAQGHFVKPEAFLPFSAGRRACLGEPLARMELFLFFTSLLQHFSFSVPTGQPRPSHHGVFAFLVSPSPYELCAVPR

T2 sequence (P08588 whole entry): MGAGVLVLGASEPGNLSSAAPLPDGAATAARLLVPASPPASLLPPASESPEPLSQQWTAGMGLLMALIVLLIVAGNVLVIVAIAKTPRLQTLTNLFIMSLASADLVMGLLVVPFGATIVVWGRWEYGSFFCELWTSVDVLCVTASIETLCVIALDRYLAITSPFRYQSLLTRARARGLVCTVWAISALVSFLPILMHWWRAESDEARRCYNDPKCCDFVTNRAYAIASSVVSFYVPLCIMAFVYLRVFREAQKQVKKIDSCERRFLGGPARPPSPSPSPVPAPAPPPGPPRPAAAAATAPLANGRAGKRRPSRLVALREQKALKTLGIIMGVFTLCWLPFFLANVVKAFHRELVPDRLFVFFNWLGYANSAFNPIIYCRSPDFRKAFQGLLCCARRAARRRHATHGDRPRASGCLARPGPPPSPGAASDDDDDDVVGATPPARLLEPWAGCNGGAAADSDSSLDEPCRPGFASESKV
Chain of CYP3A4 (P08684 whole entry): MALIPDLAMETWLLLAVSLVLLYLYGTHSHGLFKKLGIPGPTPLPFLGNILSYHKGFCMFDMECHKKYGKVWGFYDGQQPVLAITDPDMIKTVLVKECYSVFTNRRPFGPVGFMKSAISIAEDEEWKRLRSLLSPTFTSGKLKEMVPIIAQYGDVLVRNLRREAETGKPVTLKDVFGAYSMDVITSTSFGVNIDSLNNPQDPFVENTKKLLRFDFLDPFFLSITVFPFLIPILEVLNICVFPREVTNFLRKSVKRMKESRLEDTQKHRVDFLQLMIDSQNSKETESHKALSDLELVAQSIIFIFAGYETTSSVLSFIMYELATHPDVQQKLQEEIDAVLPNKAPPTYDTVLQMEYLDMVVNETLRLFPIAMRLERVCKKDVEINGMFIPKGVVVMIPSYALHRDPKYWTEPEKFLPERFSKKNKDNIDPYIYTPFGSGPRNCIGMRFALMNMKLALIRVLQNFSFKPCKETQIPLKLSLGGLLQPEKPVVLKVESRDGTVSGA
Chain of Adrenoceptor beta 3 (Callithrix jacchus) (F6XZF4 as listed by the source): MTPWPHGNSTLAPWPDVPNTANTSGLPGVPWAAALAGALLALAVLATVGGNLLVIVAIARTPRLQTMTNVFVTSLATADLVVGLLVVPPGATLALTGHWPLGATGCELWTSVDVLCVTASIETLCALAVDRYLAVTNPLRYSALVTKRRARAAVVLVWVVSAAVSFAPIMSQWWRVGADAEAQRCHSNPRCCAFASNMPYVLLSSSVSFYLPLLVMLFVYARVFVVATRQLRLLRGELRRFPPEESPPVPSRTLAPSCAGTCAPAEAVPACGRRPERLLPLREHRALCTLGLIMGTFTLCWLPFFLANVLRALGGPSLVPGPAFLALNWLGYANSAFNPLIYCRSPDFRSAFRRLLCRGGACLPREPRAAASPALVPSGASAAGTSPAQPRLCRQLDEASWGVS

Broadly, the pEC50 is −log10 of the EC50, conventionally taken in molar units. As a reminder, the inhibition is the share of the control response that was lost under treatment. Usually solubility stands for how much of the substance goes into solution per volume. Take `Cc1n[nH]c2cc(OCCNC[C@H](O)c3cccc(NS(=O)(=O)C4CCC4)c3)ccc12`: the figures for the Activity (in the data set with Rattus norvegicus [1]; in data set [6]; in the data set with Rattus norvegicus [8]) were 2%, “Dose-dependent effect” and 12.9%, respectively. In addition, the pEC50 in [2], in data set [5], in data set [7] and in data set [9] was < 5.00 each time. The inhibition at 10 µM against CYP3A4, against CYP2C9, against CYP2C19, on CYP2C8 and at CYP2D6 was < 34% in each case. Also, the Intrinsic activity in [3] was found to be 4%. Further, the Emax in [4] is 0%. Besides, in data set [10], the concentration in solution (solubility at 18 h) was 299 µM (≈ 133 µg/mL).

Values taken from ChEMBL document CHEMBL4049422, “Discovery of Novel Indazole Derivatives as Orally Available β3-Adrenergic Receptor Agonists Lacking Off-Target-Based Cardiovascular Side Effects” (J Med Chem, 2017).
